System: NCI-H1975
Test: Induction of apoptosis in human NCI-NCI-H1975 cells assessed as viable cells at 10 uM after 48 hrs by Annexin V-FITC/propidium iodide staining based flow cytometry (reference value: 96.1%)
Type: functional
Settings: NCI-H1975, 48 h, read-out: Activity

C#CCSc1nc(Sc2nccs2)c(C#N)c(-c2ccc(C)cc2)n1
viability at 10 µM: 17.1%

— ChEMBL document CHEMBL4396897, “Potent 5-Cyano-6-phenyl-pyrimidin-Based Derivatives Targeting DCN1-UBE2M Interaction” (J Med Chem, 2019)
